Patent US8680282B2, “Cyclic inhibitors of carnitine palmitoyltransferase and treating cancer” (University Health Network, priority 2007, dated 2014)

Columns and labels:
[1] = system: A172; experiment: Cancer cell growth inhibition, SRB assay; type: cell-based, human; conditions: A172; at 10 μM; SRB at Day 6; NE = no activity at 10 micromolar
Procedure: (§1) Human cancer cells (MCF-7, H358, H460, HCT116 p53^+/+, HCT116 p53^−/−, A172, PC-3, DU-145 and SW626) were maintained in DMEM medium containing 10% Fetal Bovine Serum (FBS) (Invitrogen, Burlington, ON, Canada) and normal cells HMEC, 184A1, NHBE and PrEC were cultured in MEGM, MEGM plus transferring and cholera toxin, BEGM and PrEGM supplemented with various growth factors (Cambrex, Charles city, Iowa, USA), respectively.
(§2) Compounds of Examples S1 to S30, and 4-(carboxymethyl)-4-(6-(3-hexyloxy)phenoxy)hexanoamido)-1,1-dimethylpiperidinium 2,2,2-trifluoroactate (“Compound A”) were tested in this example. Each of the tested compounds was dissolved in DMSO and further diluted in cell culture medium for the experiments performed. Cells were seeded into 96-well plates with 1,500-5,000 cells/well according to cell growth rate. After 24 h, DMEM medium containing 10% FBS were changed to DMEM containing 3% FBS for cancer cells. The compound was added into the cell culture at the indicated concentrations, and the final concentration of DMSO was adjusted to a final concentration of 0.1%. Cell viability was assessed by Sulforhodamine B (SRB) assay at Day 6.
(§3) Sulforhodamine B (SRB) (Sigma, Oakville, ON, Canada) is a water-soluble dye that binds to the basic amino acids of the cellular proteins. Thus, colorimetric measurement of the bound dye provides an estimate of the total protein mass that is related to the cell number. The cells were fixed in situ by gently aspirating off the culture media and adding 50 ul of cold 10% Tri-chloroacetic Acid (TCA) per well and incubated at 4° C. for 30-60 min. The plates were washed five times with water and allowed to air dry for 5 min. 50 ul of 0.4% (w/v) SRB dissolved in 1% (v/v) acetic acid were added into each well, plates were then incubated at RT for 30 min for staining, washed four times with 1% acetic acid to remove any unbound dye and then allowed to air dry for 5 min. Stain was solubilized with 100 ul of 10 mM Tris pH 10.5 per well. Absorbance was read at 570 nm on a spectrophotometer. GI50 (compound concentration required for 50% of growth inhibition) was calculated using GraphPad Prism 4.0 software (GraphPad Software, Inc., San Diego, Calif., USA). Growth inhibition (%) was determined as percentage of cells remaining compared to the DMSO-treated cells as control.

[2] = system: PC-3; experiment: Cancer cell growth inhibition, SRB assay; type: cell-based, human; conditions: PC-3; at 10 μM; SRB at Day 6; NE = no activity at 10 micromolar
Procedure: as §1, §2, §3

[3] = system: MCF-7; experiment: Cancer cell growth inhibition, SRB assay; type: cell-based, human; set-up: Percentage of Growth Inhibition: scale not given here; conditions: MCF-7; at 10 μM; SRB at Day 6; NE = no activity at 10 micromolar
Procedure: as §1, §2, §3

[4] = system: SW626; experiment: Cancer cell growth inhibition, SRB assay; type: cell-based, human; set-up: Percentage of Growth Inhibition: scale not given here; conditions: SW626; at 10 μM; SRB at Day 6; NE = no activity at 10 micromolar
Procedure: as §1, §2, §3

[5] = system: HCT-8; experiment: Cancer cell growth inhibition, SRB assay; type: cell-based, human; conditions: at 10 μM, SRB at Day 6
[6] = target: T1, human CPT1A (Homo sapiens, UniProt P50416); experiment: Human CPT1A LC/MS assay; type: biochemical; conditions: human CPT1A LC/MS assay, dose response format
T1 construct: made in house; host or cells: Saccharomyces cerevisiae (pESC-trp) or cultured mammalian cells (pCDNA3.1); mitochondrial extract
T1 sequence (P50416 1-773): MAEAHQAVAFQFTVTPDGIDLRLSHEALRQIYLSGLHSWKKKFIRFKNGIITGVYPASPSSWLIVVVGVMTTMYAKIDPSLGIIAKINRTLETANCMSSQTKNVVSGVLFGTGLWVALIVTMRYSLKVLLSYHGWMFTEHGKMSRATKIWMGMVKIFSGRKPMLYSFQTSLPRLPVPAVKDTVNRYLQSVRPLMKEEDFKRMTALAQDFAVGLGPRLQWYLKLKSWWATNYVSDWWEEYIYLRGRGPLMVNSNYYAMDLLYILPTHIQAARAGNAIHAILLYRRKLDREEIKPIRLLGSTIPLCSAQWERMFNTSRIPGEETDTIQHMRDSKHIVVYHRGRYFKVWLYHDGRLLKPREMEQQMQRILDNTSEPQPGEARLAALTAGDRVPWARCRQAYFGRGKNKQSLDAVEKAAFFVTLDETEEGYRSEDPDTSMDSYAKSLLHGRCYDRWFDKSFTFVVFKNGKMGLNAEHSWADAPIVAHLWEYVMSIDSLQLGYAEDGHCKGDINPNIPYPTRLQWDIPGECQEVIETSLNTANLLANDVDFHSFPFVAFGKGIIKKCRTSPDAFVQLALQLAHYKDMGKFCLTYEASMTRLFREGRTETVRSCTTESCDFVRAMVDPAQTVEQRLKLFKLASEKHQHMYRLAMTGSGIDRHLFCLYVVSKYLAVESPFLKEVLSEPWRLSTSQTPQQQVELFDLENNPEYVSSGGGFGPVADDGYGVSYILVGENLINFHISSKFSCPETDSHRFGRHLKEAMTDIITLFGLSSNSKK
Excerpt: Nucleotide sequences encoding human CPT1 enzymes were individually cloned into the yeast expression vector pESC-trp at the Cla1 (5′ terminus) and Pac1 (3′ terminus) restriction sites by PCR amplification of the open reading frame using oligonucleotide primers designed to encode the wild-type CPT1 protein sequence. Standard molecular biology techniques were used to transform and express the CPT1 proteins in the yeast Saccharomyces cerevisiae. The yeast cells were lysed by enzymatic degradation of the cell wall by Zymolase, and the mitochondria were isolated by standard biochemical techniques. The integrity of the isolated mitochondria was monitored by determining the activity of succinate dehydrogenase in the mitochondrial preparations. The mitochondrial extracts were stored at −80° C. in buffer containing 10 mM HEPES pH 7.4 and 250 mM sucrose.
Human CPT1 (A, B, C) genes were additionally cloned into the pCDNA3.1 vector individually for expression in cultured mammalian cells. Cells expressing the exogenous CPT1A were identified and grown under standard conditions. Mammalian cells were harvested, and mitochondrial extracts prepared using standard biochemical methods. The mitochondrial extracts were stored at −80° C. in buffer containing 10 mM HEPES pH 7.4 and 250 mM sucrose.
Assays were performed in 96-well plate format. Each 100 μL reaction contained 40 mM KCl, 50 mM TrisHCl pH 7.5, and 250 mM mannitol (Assay Buffer), and 1.6 μg protein of an extract, 20 μM palmitoyl-CoA, 50 μM L-carnitine, and 10 ug/mL BSA. Reactions were incubated at room temperature and stopped after 10 minutes by extraction with 200 μL of water saturated n-butanol containing myristoyl carnitine (500 nM) as an internal standard. The samples were thoroughly mixed, and the phases separated by centrifugation. Samples were prepared for analysis with a 10 fold dilution of the n-butanol phase containing the reaction product palmitoyl carnitine into a 50:50 (acetonitrile:water) solvent for analysis. 5 μL of prepared sample was separated on a Phenomenex Jupiter 5μ C4 reverse-phase column using an Agilent 1100 HPLC with a gradient from 50% acetonitrile (0.5% acetic acid) to 100% acetonitrile and quantified by detection with a Bruker Esquire 3000plus mass spectrometer. The abundance of the palmitoyl carnitine product was determined relative to the internal standard and the actual quantity of palmitoyl carnitine can be determined from a standard curve prepared using the n-butanol solution containing the internal standard.
Compounds were evaluated in two formats, a screening format, and a dose response format. The screening format was performed by adding 25 μL compound in 20% DMSO and Assay Buffer to 25 μL of extract containing […] and Assay Buffer, followed by a 10 minute incubation at room temperature. 50 μL of 40 μM palmitoyl-CoA in Assay Buffer was added to the reaction mixture, mixed and incubated for 10 minutes at room temperature. A negative control for activity was also performed where the carnitine was omitted from the reaction. A positive control for activity was also performed by omitting compound from the solution containing 20% DMSO and Assay Buffer. The reaction mixture was extracted and analyzed as described above. The inhibition by compound was determined by comparing the control relative activity to the relative activity observed in wells containing the compound. Relative activity was determined by subtracting the relative intensity (area palmitoyl carnitine/area myristoyl carnitine) observed in the negative control from the relative intensity observed in the experimental well, and dividing by the relative activity observed in the positive control.
[formula] Compound characterization by dose response format was performed using the above described assay conditions and a 16 point compound titration in 2 fold compound dilution steps. The DMSO concentration was kept constant at 20% (v/v) for all compound concentrations.

[7] = system: H358; experiment: Cancer cell growth inhibition, SRB assay; type: cell-based, human; set-up: Percentage of Growth Inhibition: unit not given here; conditions: H358; at 10 μM; SRB at Day 6; NE = no activity at 10 micromolar
Procedure: as §1, §2, §3

[8] = system: cancer cell lines from breast, lung, colon, brain, prostate and ovarian cancer; experiment: Cancer cell growth inhibition, SRB assay, cell line panel; type: cell-based, human; conditions: cell lines of Tables 2 and 3; for S11: at 10 μM, all lines other than MDA-231, A549, H460, HCT-8
Procedure: as §1
Compounds of Examples S1 to S30, and 4-(carboxymethyl)-4-(6-(3-hexyloxy)phenoxy)hexanoamido)-1,1-dimethylpiperidinium 2,2,2-trifluoroactate (“Compound A”) were tested in this example. Each of the tested compounds was dissolved in DMSO and further diluted in cell culture medium for the experiments performed. […] Cell viability was assessed by Sulforhodamine B (SRB) assay at Day 6.
Sulforhodamine B (SRB) (Sigma, Oakville, ON, Canada) is a water-soluble dye that binds to the basic amino acids of the cellular proteins. […] Absorbance was read at 570 nm on a spectrophotometer. […] Growth inhibition (%) was determined as percentage of cells remaining compared to the DMSO-treated cells as control.
All of the compounds shown in Tables 2 and 3 had activity against at least one cell line (“NT” means not tested; and “NE” means no activity at 10 micromolar—activity at higher concentrations was not measured).

Structure (SMILES) | Percentage of Growth Inhibition [1] | Percentage of Growth Inhibition [2] | Percentage of Growth Inhibition [3] | Percentage of Growth Inhibition [4] | Percentage of Growth Inhibition [5] | IC50 [6] | Percentage of Growth Inhibition [7] | activity against cancer cell lines [8]
CCCCCCCCc1ccc(NS(=O)(=O)NC2(CC(=O)O)CNC2)cc1.O=C(O)C(F)(F)F [Example S28, 3-(carboxymethyl)-3-(N-(4-octylphenyl)sulfamoylamino)azetidinium 2,2,2-trifluoroacetate] | 0.3077% | 0.6043% | 0.04154% | 0.04727% | 0.06675% | > 2500 µM | 0.06989 | –
CCCCCc1ccc(S(=O)(=O)NC2(CC(=O)O)CCCN(C)C2)cc1 (stereo not drawn) [Example S11, 3-(carboxymethyl)-1-methyl-3-(4-pentylphenylsulfonamido)piperidinium 2,2,2-trifluoroacetate] | – | – | – | – | – | 1 to 10 µM | – | did not exihibit activity at 10 μM
